Experiment [1] deals with Protein farnesyltransferase/geranylgeranyltransferase type-1 subunit alpha / Protein farnesyltransferase subunit beta (Plasmodium falciparum, UniProt Q5EI73+Q5EI74). Nature of the experiment: PfPFT IC50 Determination. To be noted: pH 7.5; 37 °C. Here is the method:
Assays for PfPFT activity were performed with a PFT-specific scintillation assay (SPA) kit (Amersham Biosciences, Piscataway, NJ). An amount of 1 uM biotinylated lamin B peptide was used. The concentration of [3H]farnesyl pyrophosphate (FPP) was increased beyond manufacturer recommendations to 1 uM. IC50 values were calculated using linear regression analysis of the plots of [3H]FPP prenylation versus concentration of compounds.

Experiment [2] has as its target Protein farnesyltransferase subunit beta/geranylgeranyltransferase type-1 subunit alpha (Homo sapiens, UniProt P49354+P49356). Briefly: In Vitro PFT Activity Assay. Conditions: pH 7.7; 30 °C. Here is the method:
In vitro inhibition assay of human PFT was done by measuring the incorporation of [3H] FPP (Amersham Biosciences, Piscataway, NJ) into wild type H-Ras (PFT). The 60,000g post-microsomal supernatant from Daudi cells was incubated in the presence of increasing concentration of compound, H-Ras substrate, and [3H] FPP. Samples were TCA-precipitated and then filtered onto glass fiber filters; unbound [3H] FPP was washed through the filters. Samples were counted on a scintillation counter and activity compared to vehicle controls to obtain IC50 values.

The text below walks through data of BindingDB's records for doi:10.1016/j.chembiol.2009.01.014 (Duke University Medical Center, 2009).

SMILES strings stand for the structures.

Chain of Protein farnesyltransferase/geranylgeranyltransferase type-1 subunit alpha / Protein farnesyltransferase subunit beta (Q5EI73 1-521): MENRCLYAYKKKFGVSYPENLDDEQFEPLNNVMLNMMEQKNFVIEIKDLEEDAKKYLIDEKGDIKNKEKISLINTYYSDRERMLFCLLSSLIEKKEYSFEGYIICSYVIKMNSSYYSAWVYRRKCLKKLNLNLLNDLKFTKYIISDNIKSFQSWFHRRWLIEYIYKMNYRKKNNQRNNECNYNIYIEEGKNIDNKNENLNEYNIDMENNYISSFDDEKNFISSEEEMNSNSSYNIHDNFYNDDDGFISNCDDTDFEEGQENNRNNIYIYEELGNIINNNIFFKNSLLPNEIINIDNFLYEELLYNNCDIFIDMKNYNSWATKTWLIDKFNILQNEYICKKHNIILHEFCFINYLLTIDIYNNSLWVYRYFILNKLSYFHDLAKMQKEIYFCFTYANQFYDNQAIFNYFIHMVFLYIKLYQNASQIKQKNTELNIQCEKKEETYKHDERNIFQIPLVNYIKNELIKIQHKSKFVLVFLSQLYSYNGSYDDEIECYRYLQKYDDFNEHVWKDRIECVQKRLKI
Chain of Protein farnesyltransferase/geranylgeranyltransferase type-1 subunit alpha / Protein farnesyltransferase subunit beta (Q5EI74 1-923): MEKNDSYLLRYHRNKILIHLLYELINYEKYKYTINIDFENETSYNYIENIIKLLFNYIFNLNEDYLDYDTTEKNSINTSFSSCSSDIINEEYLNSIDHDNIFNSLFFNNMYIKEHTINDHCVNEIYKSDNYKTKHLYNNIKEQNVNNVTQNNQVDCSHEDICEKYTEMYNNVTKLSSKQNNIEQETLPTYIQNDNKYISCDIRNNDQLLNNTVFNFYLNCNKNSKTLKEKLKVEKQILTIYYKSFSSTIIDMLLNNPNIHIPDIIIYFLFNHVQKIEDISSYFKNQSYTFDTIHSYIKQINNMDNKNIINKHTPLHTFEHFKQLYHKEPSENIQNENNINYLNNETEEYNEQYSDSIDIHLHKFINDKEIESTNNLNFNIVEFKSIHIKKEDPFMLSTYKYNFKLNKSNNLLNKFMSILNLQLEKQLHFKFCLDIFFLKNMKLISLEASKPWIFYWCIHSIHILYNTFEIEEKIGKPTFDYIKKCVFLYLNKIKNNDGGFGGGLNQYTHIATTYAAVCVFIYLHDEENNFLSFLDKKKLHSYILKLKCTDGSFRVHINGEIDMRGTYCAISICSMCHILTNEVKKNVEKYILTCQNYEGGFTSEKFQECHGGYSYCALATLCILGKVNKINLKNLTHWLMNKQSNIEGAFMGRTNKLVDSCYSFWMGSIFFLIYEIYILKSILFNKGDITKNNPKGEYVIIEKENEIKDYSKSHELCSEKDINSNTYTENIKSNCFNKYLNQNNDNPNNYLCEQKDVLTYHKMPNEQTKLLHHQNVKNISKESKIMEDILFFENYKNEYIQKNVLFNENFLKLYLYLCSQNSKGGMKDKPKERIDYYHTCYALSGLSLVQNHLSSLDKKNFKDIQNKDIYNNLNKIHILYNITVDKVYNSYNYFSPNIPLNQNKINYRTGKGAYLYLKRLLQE

The IC50 is the point on the concentration scale where inhibition reaches its midpoint. Lower therefore signals greater potency. `Cc1ccccc1S(=O)(=O)N(CCN(Cc1cncn1C)c1ccc(C#N)cc1)CC1CCN(C(=O)OC(C)(C)C)CC1` [ethylenediamine scaffold, 5]: in experiment [1], it took 3 nM to reach half-maximal inhibition (IC50).

Take `Cn1cncc1CN(CCN(CC1CCN(C(=O)OC(C)(C)C)CC1)S(=O)(=O)c1ccccc1-c1cccc(CCC(=O)O)c1)c1ccc(C#N)cc1` [ethylenediamine scaffold, 10]: the IC50 in experiment [2] was 800 nM; in experiment [1], 70 nM.

In the case of `Cn1cnc(S(=O)(=O)N(CCN(Cc2cncn2C)c2ccc(C#N)cc2)CC2CCN(C(=O)OC(C)(C)C)CC2)c1` [ethylenediamine scaffold, 4], the figures for the IC50 in experiment [2] and in experiment [1] were 3700 nM and 1.2 nM, respectively.

In experiment [2], `Cn1cnc(S(=O)(=O)N(CCN(Cc2cncn2C)c2ccc(C#N)cc2)Cc2ccccc2)c1` [1-Methyl-1H-imidazole-4-sulfonic Acid Benzyl-{2-[(4-cyanophenyl)-(3-methyl-3H-imidazol-4-ylmethyl)amino]ethyl}amide] returned an IC50 of 56 nM.

For the compound `Cc1ccccc1S(=O)(=O)N(CCN(Cc1cncn1C)c1ccc(C#N)cc1)Cc1ccccc1` [ethylenediamine scaffold, 7], the IC50 in experiment [2] worked out at 160 nM; in experiment [1], 5 nM.
